{"source": "patent US4014860A", "about": "“Plasminostreptin (enzyme inhibitor) and method for producing it from streptomyces” (Takeda Chemical Industries, Ltd., priority 1972, dated 1977)", "key": {"Plasmin-SK": {"target": "T1, Plasmin-SK (Homo sapiens, UniProt P00747)", "T1 construct": "made in house", "T1 sequence (P00747 581-810 limits assumed)": "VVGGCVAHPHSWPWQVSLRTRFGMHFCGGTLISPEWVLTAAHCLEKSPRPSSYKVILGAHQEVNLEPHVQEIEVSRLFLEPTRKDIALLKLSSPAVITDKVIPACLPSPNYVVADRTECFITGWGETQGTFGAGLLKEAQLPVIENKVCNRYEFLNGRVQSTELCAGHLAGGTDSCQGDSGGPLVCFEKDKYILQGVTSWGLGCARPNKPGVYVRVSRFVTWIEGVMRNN", "T1 sequence (P00747 97-580 partner limits assumed)": "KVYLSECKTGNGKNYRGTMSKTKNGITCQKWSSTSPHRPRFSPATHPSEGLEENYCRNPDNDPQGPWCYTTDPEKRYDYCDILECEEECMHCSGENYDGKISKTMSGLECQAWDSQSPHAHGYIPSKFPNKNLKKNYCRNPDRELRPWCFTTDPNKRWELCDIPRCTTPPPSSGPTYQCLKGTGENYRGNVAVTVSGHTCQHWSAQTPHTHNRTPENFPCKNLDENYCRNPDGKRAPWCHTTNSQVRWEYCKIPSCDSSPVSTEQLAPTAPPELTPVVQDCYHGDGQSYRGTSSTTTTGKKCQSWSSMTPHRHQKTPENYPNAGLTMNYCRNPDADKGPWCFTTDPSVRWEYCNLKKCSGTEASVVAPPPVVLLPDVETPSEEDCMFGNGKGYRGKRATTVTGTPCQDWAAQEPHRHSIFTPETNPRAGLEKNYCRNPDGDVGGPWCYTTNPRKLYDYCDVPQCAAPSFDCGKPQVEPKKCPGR", "assay": "Plasmin-fibrin system (fibrin plate method)", "type": "biochemical", "description": "1. Plasmin-SK: The euglobulin fraction obtained from human blood plasma is dissolved in buffer (1) which is described below and then, activated with streptokinase (Lederle) [Annual Report of Takeda Research Laboratories, 28, 140 (1969)].\n1. Plasmin-fibrin system (fibrin plate method): Ten ml of a fibrinogen solution (1%, buffer (1)) is placed in a petri dish (9 cm in diameter) and gelled by the addition of 0.2 ml of thrombin [50 J. P. units (Japanese Pharmacopeia units)/ml, 0.145 M sodium chloride]. The gel is allowed to stand at 30° C for 30 minutes to prepare a fibrin plate. Meanwhile, paper discs (8mm in diameter, water-absorbing capacity: 0.025 ml) are dipped in a plasminostreptin solution of varying concentrations and allowed to dry on a filter paper in the air.\nThen, 0.015 ml of a plasmin-SK solution is dropped onto each of the discs, which is placed on the above fibrin plate. After the system is allowed to stand at 37° C for 5 to 10 hours, the formation of lyzed zone in evaluated. The plasmin-inhibiting activity of plasminostreptin is indicated as the concentration of plasminostreptin solution required for a complete inhibition of fibrinolysis."}, "plasmin-UK [1]": {"target": "T2, plasmin-UK (Homo sapiens, UniProt P00747)", "T2 construct": "purchased Midorijuji", "assay": "Plasmin-fibrin system (determination of clot lysis time)", "type": "biochemical", "details": "50% inhibition of 0.08 casein units of plasmin-UK", "description": "(§1) 2. Plasmin - UK (Midorijuji, urokinase-activated plasmin)\n(2) Plasmin-fibrin system (determination of clot lysis time): Into a small test tube are poured 0.4 ml of a fibrinogen solution (0.25%, buffer (1)), 0.3 ml of buffer (1) and 0.1 ml of plasminostreptin solution of varying concentrations, followed by the addition of 0.1 ml of a plasmin-UK solution [0.8 casein units/ml, buffer (1)]. The mixture in blended well and immediately thereafter, 0.1 ml of a thrombin solution (50 J. P. units/ml, 0.145 M sodium chloride) is added. The resulting gel is allowed to stand at 37° C and the time necessary to lyse the clot is measured. The plasmin-inhibiting activity of plasminostreptin is determined by the procedure set forth in Biochimica Biophysica Acta. 214, 411 (1970). Thus, the amount of plasminostreptin which is required for a 50% inhibition of the activity of 0.08 casein units of plasmin-UK, which occurs in the reaction mixture, is determined from the concentration of plasminostreptin which will double the clot lysis time in the absence of plasminostreptin, and the above amount is indicated in units of ID50."}, "plasmin-UK [2]": {"target": "T2, plasmin-UK", "assay": "Plasmin-casein system", "type": "biochemical", "details": "50% inhibition of 0.4 casein units of plasmin-UK; casein substrate", "description": "as §1\n3. plasmin-casein system: Into a test tube are poured 1 ml of casein solution [4%, buffer (2)], 0.5 ml of buffer (2) and 0.3 ml of a plasminostreptin solution of varying concentrations, followed by the addition of 0.2 ml of plasmin-UK solution [2 casein units/ml, buffer (2)]. The mixture is blended well and allowed to stand at 37° C for 20 minutes. The reaction is terminated by the addition of 2 ml of 1.7 M perchloric acid and the system is allowed to stand at room temperature for another 1 hour. The reaction mixture is filtered through a filter paper and the absorbance of the resulting filtrate at 280 mμ is measured.\nThe plasmin-inhibiting activity of plasminostreptin is determined and indicated as follows.\nThus, the amount of plasminostreptin is determined which is required to effect a 50% inhibition of the activity of 0.4 casein units of plasmin-UK in the absence of plasminostreptin and is shown in units of ID50."}, "Trypsin": {"target": "T3, Trypsin (Bos taurus, UniProt P00760)", "T3 construct": "purchased Sigma Type III", "T3 sequence (P00760 24-246)": "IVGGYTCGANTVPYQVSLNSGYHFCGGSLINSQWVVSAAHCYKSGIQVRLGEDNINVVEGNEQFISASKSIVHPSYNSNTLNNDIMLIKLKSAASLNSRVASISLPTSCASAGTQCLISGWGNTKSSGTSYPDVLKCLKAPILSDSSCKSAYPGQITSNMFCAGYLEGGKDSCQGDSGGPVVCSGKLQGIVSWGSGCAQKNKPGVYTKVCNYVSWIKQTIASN", "assay": "Trypsin-casein system", "type": "biochemical", "details": "50% inhibition of 10 μg of trypsin; casein substrate", "description": "3. Trypsin (Sigma, crystalline, Type III)\nInto a test tube are poured 1 ml of a casein solution [2%, buffer (2)], 0.5 ml of buffer (2) and 0.3 ml of a plasminostreptin solution of varying concentrations and after the addition of 0.2 ml of a trypsin solution [50 μg/ml, buffer(2)], the mixture is blended well and allowed to stand under conditions similar to those described for the plasmin-casein system. Thereafter, also in the same manner as described above, the amount of plasminostreptin required for a 50% inhibition of the activity of 10 μg of trypsin in the absence of plasminostreptin is determined and indicated in units of ID50."}, "[3]": {"tested_on": "Fusarium alkaline protease", "assay": "Fusarium alkaline protease-casein system", "type": "biochemical", "details": "50% inhibition of 4 μg of Fusarium alkaline protease; casein substrate, pH 10.5", "description": "4. fusarium crystalline alkaline protease (U.S.P. No. 3652399)\n(§2) Into a test tube are poured 1 ml of a casein solution [2%, buffer (3)], 0.5 ml of buffer (3), and 0.4 ml of a plasminostreptin solution of varying concentration and after the addition of 0.1 ml of either a Fusarium alkaline protease solution [40 μg/ml, buffer (3)] or Nagarse solution [100 μg/ml, buffer (3)], the mixture is blended well and allowed to stand under conditions similar to those described for the plasmin-casein system. Thereafter, also in the same manner as described above, the amount of plasminostreptin required for a 50% inhibition of the activity of 4 μg of Fusarium alkaline protease and 10 μg of Nagarse in the absence of plasminostreptin is determined, respectively, and indicated in units of ID50."}, "Nagarse": {"target": "T4, Nagarse (Bacillus amyloliquefaciens, UniProt P00782)", "T4 construct": "purchased Nagase Sangyo", "T4 sequence (P00782 108-382)": "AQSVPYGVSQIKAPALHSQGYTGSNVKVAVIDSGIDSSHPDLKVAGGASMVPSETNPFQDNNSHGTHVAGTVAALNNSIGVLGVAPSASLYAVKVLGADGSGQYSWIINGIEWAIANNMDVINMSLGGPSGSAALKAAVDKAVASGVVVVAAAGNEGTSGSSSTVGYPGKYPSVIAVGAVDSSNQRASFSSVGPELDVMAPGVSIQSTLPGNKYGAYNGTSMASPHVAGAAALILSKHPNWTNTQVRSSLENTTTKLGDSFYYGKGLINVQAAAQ", "assay": "Nagarse-casein system", "type": "biochemical", "details": "50% inhibition of 10 μg of Nagarse; casein substrate, pH 10.5", "description": "5. Nagarse(crystalline protease, Nagase Sangyo)\nas §2"}, "[4]": {"target": "T5, kallikrein (Beyer, Depot - Padutin) (Sus scrofa, UniProt P00752)", "T5 construct": "purchased Beyer (so in the source); Bayer) Depot - Padutin", "T5 sequence (P00752 8-246)": "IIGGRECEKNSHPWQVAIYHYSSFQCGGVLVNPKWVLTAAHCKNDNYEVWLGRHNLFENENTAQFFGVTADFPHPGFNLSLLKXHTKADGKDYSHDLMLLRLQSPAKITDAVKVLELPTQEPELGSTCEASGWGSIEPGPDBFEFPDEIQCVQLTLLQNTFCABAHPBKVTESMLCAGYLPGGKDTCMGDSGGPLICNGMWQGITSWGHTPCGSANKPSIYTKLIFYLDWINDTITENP", "assay": "Kallikrein esterase activity against benzoylarginine ethyl ester", "type": "biochemical", "details": "result in words"}, "plasmin-UK [5]": {"target": "T2, plasmin-UK", "assay": "Plasmin activity of rat blood plasma before and after intravenous administration", "type": "in vivo", "details": "rats, 0.8 mg intravenous, 1 hour after administration; result in words", "description": "From each of five rats (male, SD, 7 weeks old), blood samples are taken before the administration of plasminostreptin and also 1 hour after the intravenous administration of 0.8 mg plasminostreptin. The plasma is separated from each of the blood samples and the abovementioned plasmin-UK solution is added in each plasma sample to various concentrations.\nImmediately thereafter, the activity of plasmin in each plasma sample is determined using casein as substrate. The plasmin activity of blood plasma samples from each rat before and after the administration of plasminostreptin are compared."}, "mice": {"tested_on": "mice", "assay": "Acute toxicity tests in mice", "type": "in vivo", "from_the_text": "The toxicity of plasminostreptin is extremely low and its LD50 values as determined by acute toxicity tests in mice are more than 5 g/kg orally, more than 5 g/kg intraperitoneally and 2 to 3 g/kg, intravenously."}, "Solubility": {"assay": "Solubility", "type": "physicochemical"}, "[6]": {"assay": "Stability (heat treatment, remaining activity)", "type": "physicochemical", "details": "30 minutes' treatment at pH 4-9 and at 100° C", "description": "More than 50 percent of the original activity remains intact even after a 30 minutes' treatment at pH 4-9 and at 100° C."}, "[7]": {"assay": "Isoelectric point by isoelectric focussing method", "type": "physicochemical", "from_the_text": "6. Isoelectric point: about 6.3 as determined by the isoelectric focussing method Acta Chemica Scandinavica,20, 820 (1966)"}}, "data": [{"substance": "plasminostreptin", "values": [{"measurement": "concentration for a complete inhibition of fibrinolysis", "setting": "Plasmin-SK; fibrin plate method, crystalline product of Example 1", "value": 20, "unit": "µg/mL"}, {"measurement": "Concentration for complete inhibition", "setting": "Plasmin-SK; fibrin plate, complete inhibition of fibrinolysis, Table 3", "value": "< 30", "unit": "µg/mL"}, {"measurement": "ID50", "setting": "plasmin-UK [1]", "value": "< 10", "unit": "µg"}, {"measurement": "ID50", "setting": "plasmin-UK [2]", "value": "< 10", "unit": "µg"}, {"measurement": "ID50", "setting": "Trypsin", "value": "< 5", "unit": "µg"}, {"measurement": "ID50", "setting": "[3]", "value": "< 6", "unit": "µg"}, {"measurement": "ID50", "setting": "Nagarse", "value": "< 5", "unit": "µg"}, {"measurement": "Inhibition of the activity of kallikrein", "setting": "[4]", "value": "can hardly be detected"}, {"measurement": "plasmin activity of blood plasma after administration", "setting": "plasmin-UK [5]", "value": "significantly inhibited"}, {"measurement": "LD50", "setting": "mice; intraperitoneally", "value": "more than 5 g/kg"}, {"measurement": "LD50", "setting": "mice; orally", "value": "more than 5 g/kg"}, {"measurement": "Solubility in aqueous solution", "setting": "Solubility; ammonium sulfate at 60% saturation", "value": "almost completely precipitated"}, {"measurement": "Solubility", "setting": "Solubility; glacial acetic acid, alcohols, acetone, chloroform, ether, hexane and other organic solvents", "value": "only sparingly soluble"}, {"measurement": "Solubility in aqueous solution", "setting": "Solubility; neighborhood of pH 6", "value": "solubility drops"}, {"measurement": "Solubility", "setting": "Solubility; pyridine", "value": "slightly soluble"}, {"measurement": "Solubility", "setting": "Solubility; water and aqueous ammonia", "value": "Soluble"}, {"measurement": "original activity remaining intact", "setting": "[6]", "value": "More than 50%"}, {"measurement": "Isoelectric point", "setting": "[7]", "value": "about 6.3"}]}]}
